Data: patent US10273210B2, “Pyridine compound” (Sumitomo Chemical Company, Limited, priority 2015, dated 2019)

Columns and labels:
[1] = system: cotton aphid (Aphis gossypii); assay: Test Example 1: foliar spray on cucumber seedlings infested with cotton aphid, controlling value; type: in vivo; settings: 120 h, spray 10 mL/seedling on cucumber, 5 days after spraying, 25° C.
From the text: Controlling value (%)={1−(Cb×Tai)/(Cai×Tb)}×100 wherein the symbols in the formula represent the following meanings. Cb: Number of the test insects in untreated group; Cai: Number of the surviving insects at the time of the investigation in untreated group; Tb: Number of the test insects in treated group; Tai: Number of the surviving insects at the time of the investigation in treated group; Here the “untreated group” represents a group where a similar treatment procedure to that of the treated group except not using each test compound is done.

[2] = system: housefly (Musca domestica); assay: whole plant or invertebrate; type: in vivo; settings: 24 h, read-out: mortality of insects
Description: A bottom of a plastic cup having a diameter of 5.5 cm is lined with the same size of a filter paper, and each of the diluted solutions (0.7 mL) is added dropwise on the filter paper, and sucrose (30 mg) is homogeneously placed into the plastic cup as a bait.

| Structure (SMILES) | pest or weed control at 200 ppm [1] [%] | pest or weed control at 500 ppm [1] [%] | mortality at 500 ppm [2] [%] |
| --- | --- | --- | --- |
| CCS(=O)(=O)c1cc(C#N)ccc1-c1ccc(OCC(F)(F)C(F)(F)F)cn1 [Present compound 60] | ≥ 90 | ≥ 90 |  |
| CCS(=O)(=O)c1cc(NC(=O)C2CC2)ccc1-c1ccc(OCC(F)(F)C(F)(F)F)cn1 [Present compound 63] |  | ≥ 90 |  |
| CCSc1cc(C#N)ccc1-c1ccc(OCC(F)(F)C(F)(F)F)cn1 [Present compound 59] | ≥ 90 | ≥ 90 |  |
| CCS(=O)(=O)c1cc(C(=O)O)ccc1-c1ccc(OCC(F)(F)C(F)(F)F)cn1 [Present compound 61] | ≥ 90 | ≥ 90 |  |
| CCS(=O)(=O)c1cc(N)ccc1-c1ccc(OCC(F)(F)C(F)(F)F)cn1 [Present compound 53] |  | ≥ 90 |  |
| CCS(=O)(=O)c1cc(-c2ccccn2)ccc1-c1ccc(OCC(F)(F)C(F)(F)F)cn1 [Present compound 68] | ≥ 90 | ≥ 90 |  |
| CCS(=O)(=O)c1ccc(N)cc1-c1ccc(OCC(F)(F)C(F)(F)F)cn1 [Present compound 62] | ≥ 90 | ≥ 90 |  |
| CCS(=O)(=O)c1cc(-n2cncn2)ccc1-c1ccc(OCC(F)(F)C(F)(F)F)cn1 [Present compound 67] | ≥ 90 | ≥ 90 | ≥ 100 |
